Publication PMC12638379, “An innovative approach to development of new pyrazolylquinolin-2-one hybrids as dual EGFR and BRAF^V600E inhibitors” (Molecular Diversity, 2025)
Like-named read-outs stand apart in the source and are kept apart here.

System: NCI 60 cancer cell lines
Test: NCI anticancer screening over a panel of 60 cancer cells, single concentration 10 µM
Format: cell-based, human
Conditions: Homo sapiens, read-out: Growth inhibition (GI %)
In short: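 Primary single-dose screen at 10 µM over the NCI panel of 60 human tumour cell lines (leukemia, CNS, lung, colon, kidney, ovary, breast, prostate). The standard NCI Developmental Therapeutics Program protocol was used.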

[1] = A549, Non-small cell lung cancer A549/ATCC, 10 μM
[2] = BT-549, Breast cancer BT-549, 10 μM
[3] = CAKI-1, Renal cancer CAKI-1, 10 μM
[4] = CCRF-CEM, Leukemia CCRF-CEM, 10 μM
[5] = COLO 205, Colon cancer COLO 205, 10 μM
[6] = DU-145, Prostate cancer DU-145, 10 μM
[7] = EKVX, Non-small cell lung cancer EKVX, 10 μM
[8] = HCC 2998, Colon cancer HCC-2998, 10 μM
[9] = HCT-15, Colon cancer HCT-15, 10 μM
[10] = HCT-116, Colon cancer HCT-116, 10 μM
[11] = HL-60, Leukemia HL-60(TB), 10 μM
[12] = HOP-62, Non-small cell lung cancer HOP-62, 10 μM
[13] = HOP-92, Non-small cell lung cancer HOP-92, 10 μM
[14] = HT-29, Colon cancer HT29, 10 μM
[15] = Hs-578T, Breast cancer HS 578T, 10 μM
[16] = IGROV-1, Ovarian cancer IGROV1, 10 μM
[17] = LOX IMVI, Melanoma LOX IMVI, 10 μM
[18] = MCF7, Breast cancer MCF7, 10 μM
[19] = MDA-MB-435, Melanoma MDA-MB-435, 10 μM
[20] = MDA-MB-468, Breast cancer MDA-MB-468, 10 μM
[21] = Malme-3M, Melanoma MALME-3M, 10 μM
[22] = NCI-H23, Non-small cell lung cancer NCI-H23, 10 μM
[23] = NCI-H226, Non-small cell lung cancer NCI-H226, 10 μM
[24] = NCI-H322M, Non-small cell lung cancer NCI-H322M, 10 μM
[25] = NCI-H460, Non-small cell lung cancer NCI-H460, 10 μM
[26] = NCI-H522, Non-small cell lung cancer NCI-H522, 10 μM
[27] = NCI/ADR-RES, Ovarian cancer NCI/ADR-RES, 10 μM
[28] = OVCAR-3, Ovarian cancer OVCAR-3, 10 μM
[29] = OVCAR-4, Ovarian cancer OVCAR-4, 10 μM
[30] = OVCAR-5, Ovarian cancer OVCAR-5, 10 μM
[31] = OVCAR-8, Ovarian cancer OVCAR-8, 10 μM
[32] = RPMI-8226, Leukemia RPMI-8226, 10 μM
[33] = RXF 393, Renal cancer RXF 393, 10 μM
[34] = SF-268, CNS Cancer SF-268, 10 μM
[35] = SF-295, CNS Cancer SF-295, 10 μM
[36] = SF-539, CNS Cancer SF-539, 10 μM
[37] = SK-MEL-2, Melanoma SK-MEL-2, 10 μM
[38] = SK-MEL-5, Melanoma SK-MEL-5, 10 μM
[39] = SK-MEL-28, Melanoma SK-MEL-28, 10 μM
[40] = SK-OV-3, Ovarian cancer SK-OV-3, 10 μM
[41] = SN12C, Renal cancer SN12C, 10 μM
[42] = SNB-19, CNS Cancer SNB-19, 10 μM
[43] = SNB-75, CNS Cancer SNB-75, 10 μM
[44] = SW-620, Colon cancer SW-620, 10 μM
[45] = T47D, Breast cancer T-47D, 10 μM
[46] = TK-10, Renal cancer TK-10, 10 μM
[47] = UACC-62, Melanoma UACC-62, 10 μM
[48] = UACC-257, Melanoma UACC-257, 10 μM
[49] = UO-31, Renal cancer UO-31, 10 μM

## COc1ccc2[nH]c(=O)cc(-n3ncc(C(C)=O)c3C)c2c1 [Compound 2c, 4-(4-Acetyl-5-methyl-1H-pyrazol-1-yl)-6-methoxyquinolin-2(1H)-one]
786-0, Renal cancer 786-0, 10 μM
  inhibition at 10 µM: < 5%
A498, Renal cancer A498, 10 μM
  inhibition at 10 µM: < 5%
[1]
  inhibition at 10 µM: < 5%
ACHN, Renal cancer ACHN, 10 μM
  inhibition at 10 µM: < 5%
[2]
  inhibition at 10 µM: < 5%
[3]
  inhibition at 10 µM: 15.6%
[4]
  inhibition at 10 µM: 5.28%
[5]
  inhibition at 10 µM: < 5%
[6]
  inhibition at 10 µM: < 5%
[7]
  inhibition at 10 µM: 6.27%
[8]
  inhibition at 10 µM: < 5%
[9]
  inhibition at 10 µM: < 5%
[10]
  inhibition at 10 µM: 7.78%
[11]
  inhibition at 10 µM: 12.5%
[12]
  inhibition at 10 µM: 18.8%
[13]
  inhibition at 10 µM: 31.6%
[14]
  inhibition at 10 µM: < 5%
[15]
  inhibition at 10 µM: < 5%
[16]
  inhibition at 10 µM: < 5%
K562, Leukemia K-562, 10 μM
  inhibition at 10 µM: < 5%
KM12, Colon cancer KM12, 10 μM
  inhibition at 10 µM: < 5%
[17]
  inhibition at 10 µM: 11.3%
Leukemia SR, 10 μM
  inhibition at 10 µM: 8.98%
[18]
  inhibition at 10 µM: < 5%
MDA-MB-231, Breast Cancer MDA-MB 231/ATCC, 10 μM
  inhibition at 10 µM: 7%
[19]
  inhibition at 10 µM: < 5%
[20]
  inhibition at 10 µM: < 5%
MOLT-4, Leukemia MOLT-4, 10 μM
  inhibition at 10 µM: < 5%
[21]
  inhibition at 10 µM: < 5%
Melanoma M14, 10 μM
  inhibition at 10 µM: < 5%
[22]
  inhibition at 10 µM: < 5%
[23]
  inhibition at 10 µM: 7.15%
[24]
  inhibition at 10 µM: 7.11%
[25]
  inhibition at 10 µM: < 5%
[26]
  inhibition at 10 µM: 8.32%
[27]
  inhibition at 10 µM: < 5%
[28]
  inhibition at 10 µM: < 5%
[29]
  inhibition at 10 µM: < 5%
[30]
  inhibition at 10 µM: < 5%
[31]
  inhibition at 10 µM: < 5%
Prostate cancer PC-3, 10 μM
  inhibition at 10 µM: 13.4%
[32]
  inhibition at 10 µM: 11.7%
[33]
  inhibition at 10 µM: < 5%
[34]
  inhibition at 10 µM: < 5%
[35]
  inhibition at 10 µM: < 5%
[36]
  inhibition at 10 µM: < 5%
[37]
  inhibition at 10 µM: < 5%
[38]
  inhibition at 10 µM: < 5%
[39]
  inhibition at 10 µM: < 5%
[40]
  inhibition at 10 µM: 7.83%
[41]
  inhibition at 10 µM: < 5%
[42]
  inhibition at 10 µM: < 5%
[43]
  inhibition at 10 µM: 11.8%
[44]
  inhibition at 10 µM: < 5%
[45]
  inhibition at 10 µM: 9.18%
[46]
  inhibition at 10 µM: < 5%
U-251, CNS Cancer U251, 10 μM
  inhibition at 10 µM: 5.38%
[47]
  inhibition at 10 µM: < 5%
[48]
  inhibition at 10 µM: < 5%
[49]
  inhibition at 10 µM: 34.4%

## CC(=O)c1cnn(-c2cc(=O)[nH]c3ccc(Cl)cc23)c1C [Compound 2d, 4-(4Aacetyl-5-methyl-1H-pyrazol-1-yl)-6-chloroquinolin-2(1H)-one]
A498, Renal cancer A498, 10 μM
  inhibition at 10 µM: < 5%
[1]
  inhibition at 10 µM: 5.11%
ACHN, Renal cancer ACHN, 10 μM
  inhibition at 10 µM: 7.6%
[2]
  inhibition at 10 µM: < 5%
[3]
  inhibition at 10 µM: 15.1%
[4]
  inhibition at 10 µM: 8.99%
[5]
  inhibition at 10 µM: < 5%
[6]
  inhibition at 10 µM: < 5%
[7]
  inhibition at 10 µM: 13.9%
[8]
  inhibition at 10 µM: < 5%
[9]
  inhibition at 10 µM: < 5%
[10]
  inhibition at 10 µM: < 5%
[11]
  inhibition at 10 µM: 6.19%
[12]
  inhibition at 10 µM: 9.35%
[13]
  inhibition at 10 µM: 13.4%
[14]
  inhibition at 10 µM: < 5%
[15]
  inhibition at 10 µM: < 5%
[16]
  inhibition at 10 µM: 7.41%
K562, Leukemia K-562, 10 μM
  inhibition at 10 µM: 5.5%
KM12, Colon cancer KM12, 10 μM
  inhibition at 10 µM: < 5%
[17]
  inhibition at 10 µM: 11.2%
Leukemia SR, 10 μM
  inhibition at 10 µM: < 5%
[18]
  inhibition at 10 µM: 6.43%
[19]
  inhibition at 10 µM: < 5%
[20]
  inhibition at 10 µM: < 5%
MOLT-4, Leukemia MOLT-4, 10 μM
  inhibition at 10 µM: 8.77%
[21]
  inhibition at 10 µM: 13.3%
Melanoma M14, 10 μM
  inhibition at 10 µM: < 5%
[22]
  inhibition at 10 µM: 5.37%
[23]
  inhibition at 10 µM: 16.6%
[24]
  inhibition at 10 µM: 12.2%
[25]
  inhibition at 10 µM: < 5%
[26]
  inhibition at 10 µM: 5.29%
[27]
  inhibition at 10 µM: 5.32%
[28]
  inhibition at 10 µM: < 5%
[29]
  inhibition at 10 µM: < 5%
[30]
  inhibition at 10 µM: < 5%
[31]
  inhibition at 10 µM: < 5%
Prostate cancer PC-3, 10 μM
  inhibition at 10 µM: 11%
[32]
  inhibition at 10 µM: 9.16%
[33]
  inhibition at 10 µM: < 5%
[34]
  inhibition at 10 µM: < 5%
[35]
  inhibition at 10 µM: 5.21%
[36]
  inhibition at 10 µM: 14.4%
[37]
  inhibition at 10 µM: < 5%
[38]
  inhibition at 10 µM: 5.89%
[39]
  inhibition at 10 µM: < 5%
[40]
  inhibition at 10 µM: 6.14%
[41]
  inhibition at 10 µM: 15.2%
[42]
  inhibition at 10 µM: 7.35%
[43]
  inhibition at 10 µM: < 5%
[44]
  inhibition at 10 µM: < 5%
[45]
  inhibition at 10 µM: < 5%
[46]
  inhibition at 10 µM: < 5%
U-251, CNS Cancer U251, 10 μM
  inhibition at 10 µM: < 5%
[47]
  inhibition at 10 µM: 15.7%
[48]
  inhibition at 10 µM: < 5%
[49]
  inhibition at 10 µM: 35%
